Here are results for 28 molecules from BindingDB's records for doi:10.1016/j.bmc.2005.11.005 (Wyeth Research, 2006).

Assay [1] deals with T1, Tyrosine-protein phosphatase non-receptor type 1 [1-298] (Homo sapiens, UniProt P18031).
T1 construct: 1-298
T1 sequence (P18031 whole entry): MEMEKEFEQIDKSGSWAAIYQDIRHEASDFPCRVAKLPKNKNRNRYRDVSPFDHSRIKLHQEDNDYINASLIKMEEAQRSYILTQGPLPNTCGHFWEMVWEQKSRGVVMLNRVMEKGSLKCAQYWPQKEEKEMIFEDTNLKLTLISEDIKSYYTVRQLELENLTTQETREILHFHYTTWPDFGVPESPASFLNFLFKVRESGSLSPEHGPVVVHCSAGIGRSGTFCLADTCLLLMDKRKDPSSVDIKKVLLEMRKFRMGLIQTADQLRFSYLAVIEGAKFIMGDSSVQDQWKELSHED
Briefly: Enzymatic Assay. On the procedure:
(§1) The enzymatic assay was carried out at room temperature in 96-well plates. […] All the assays were carried out in duplicate or triplicate and the average results are presented. Ki is derived from IC50 based on competitive inhibition Ki = IC50 x Km/ (Km + [substrate]).

Assay [2] deals with T2, Tyrosine-protein phosphatase non-receptor type 2 (Homo sapiens, UniProt P17706).
T2 sequence (P17706 whole entry): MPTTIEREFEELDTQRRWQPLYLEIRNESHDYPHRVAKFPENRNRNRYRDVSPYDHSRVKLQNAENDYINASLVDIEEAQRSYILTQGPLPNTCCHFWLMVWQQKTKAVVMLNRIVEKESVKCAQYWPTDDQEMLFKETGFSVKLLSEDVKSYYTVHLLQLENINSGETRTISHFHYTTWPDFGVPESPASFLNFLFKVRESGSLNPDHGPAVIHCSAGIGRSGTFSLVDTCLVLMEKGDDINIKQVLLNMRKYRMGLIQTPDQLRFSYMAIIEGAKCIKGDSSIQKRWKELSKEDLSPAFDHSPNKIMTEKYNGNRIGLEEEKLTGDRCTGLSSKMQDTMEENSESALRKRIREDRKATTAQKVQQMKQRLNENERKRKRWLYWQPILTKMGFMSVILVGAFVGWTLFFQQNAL
Put plainly: Enzymatic Assay. The settings on record: 25 °C. Here is the method:
as §1

On to `O=C(O)COc1c(C(=O)O)sc2c1sc1c(NC3CCCCC3)cccc12` [5-(carboxymethoxy)-9-(cyclohexylamino)-3,7-dithiatricyclo[6.4.0.0^{2,6}]dodeca-1(8),2(6),4,9,11-pentaene-4-carboxylic acid], for which, in assay [1] (25 °C), the Ki turned out to be 1.7 µM.

Consider `O=C(O)COc1c(C(=O)O)sc2c1sc1cc(NC3CCCCC3)ccc12` [5-(carboxymethoxy)-10-(cyclohexylamino)-3,7-dithiatricyclo[6.4.0.0^{2,6}]dodeca-1(8),2(6),4,9,11-pentaene-4-carboxylic acid], for which the Ki in assay [1] (25 °C) is 0.74 µM.

`O=C(O)COc1c(C(=O)O)sc2c1ccc1ccccc12` [5-(carboxymethoxy)-3-thiatricyclo[7.4.0.0^{2,6}]trideca-1(9),2(6),4,7,10,12-hexaene-4-carboxylic acid] had a Ki in assay [1] (25 °C) of 11 µM.

The molecule `O=C(O)COc1c(C(=O)O)sc2cc(Cl)ccc12` [3-(carboxymethoxy)-6-chloro-1-benzothiophene-2-carboxylic acid] had an inhibitory constant (Ki) in assay [1] (pH 7, 22 °C) of 61 µM. This counts as double-digit micromolar.

Turning to `O=C(O)COc1c(C(=O)O)sc2ccccc12` [3-(carboxymethoxy)-1-benzothiophene-2-carboxylic acid], in assay [1] (pH 7, 22 °C), affinity was put at a Ki of 160 µM.

In assay [1] (25 °C), `O=C(O)COc1c(C(=O)O)sc2c1sc1cc(NCC3CCCCC3)ccc12` [5-(carboxymethoxy)-10-[(cyclohexylmethyl)amino]-3,7-dithiatricyclo[6.4.0.0^{2,6}]dodeca-1(8),2(6),4,9,11-pentaene-4-carboxylic acid] yielded a Ki of 0.68 µM.

On to `O=C(O)COc1c(C(=O)O)sc2cc(-c3ccc(O)cc3)ccc12` [3-(carboxymethoxy)-6-(4-hydroxyphenyl)-1-benzothiophene-2-carboxylic acid], for which the affinity in assay [1] (pH 7, 22 °C) corresponds to a Ki of 26 µM.

Regarding `O=C(O)COc1c(C(=O)O)sc2c1cnc1ccccc12` [5-(carboxymethoxy)-3-thia-8-azatricyclo[7.4.0.0^{2,6}]trideca-1(9),2(6),4,7,10,12-hexaene-4-carboxylic acid], the inhibition constant Ki in assay [1] (25 °C) is > 500 µM.

As to `Cc1cccc2c(OCC(=O)O)c(C(=O)O)sc12` [3-(carboxymethoxy)-7-methyl-1-benzothiophene-2-carboxylic acid], in assay [1] (25 °C), affinity was put at a Ki of 37 µM.

As to `O=C(O)COc1c(C(=O)O)sc2c1sc1c(NCC3CCCCC3)cccc12` [5-(carboxymethoxy)-9-[(cyclohexylmethyl)amino]-3,7-dithiatricyclo[6.4.0.0^{2,6}]dodeca-1(8),2(6),4,9,11-pentaene-4-carboxylic acid], in assay [1] (25 °C), the Ki turned out to be 0.92 µM.

With `CC(Oc1c(C(=O)O)sc2cc(Cl)ccc12)C(=O)O` (centres undefined) [3-(1-carboxyethoxy)-6-chloro-1-benzothiophene-2-carboxylic acid], the Ki in assay [1] (pH 7, 22 °C) is > 2500 µM.

In turn, `CCS(=O)(=O)N1CCC(Nc2ccc3c(c2)sc2c(OCC(=O)O)c(C(=O)O)sc23)CC1` [5-(carboxymethoxy)-10-{[1-(ethanesulfonyl)piperidin-4-yl]amino}-3,7-dithiatricyclo[6.4.0.0^{2,6}]dodeca-1(8),2(6),4,9,11-pentaene-4-carboxylic acid] came in with a Ki in assay [1] (25 °C) of 1.6 µM.

With `O=C(O)COc1c(C(=O)O)sc2c1sc1cc(Cl)ccc12` [5-(carboxymethoxy)-10-chloro-3,7-dithiatricyclo[6.4.0.0^{2,6}]dodeca-1(8),2(6),4,9,11-pentaene-4-carboxylic acid], the Ki in assay [1] (25 °C) was determined as 3.5 µM. Compared with the last molecule, the Ki is about 2.2-fold higher.

In turn, `O=C(O)COc1cc2ccccc2cc1C(=O)O` [3-(carboxymethoxy)naphthalene-2-carboxylic acid] gave a Ki in assay [1] (pH 7, 22 °C) of 860 µM.

Turning to `O=C(O)COc1c(C(=O)O)sc2cccnc12` [3-(carboxymethoxy)thieno[3,2-b]pyridine-2-carboxylic acid], the Ki in assay [1] (pH 7, 22 °C) came out at 77 µM.

In assay [1] (pH 7, 22 °C), `O=C(O)COc1c(C(=O)O)sc2cc(-c3cccs3)ccc12` [3-(carboxymethoxy)-6-(thiophen-2-yl)-1-benzothiophene-2-carboxylic acid] gave an inhibition constant (Ki) of 30 µM.

With `O=C(O)COc1c(C(=O)O)sc2c1sc1cc(NC3CCN(S(=O)(=O)Cc4ccccc4)CC3)ccc12` [5-(carboxymethoxy)-10-{[1-(phenylmethane)sulfonylpiperidin-4-yl]amino}-3,7-dithiatricyclo[6.4.0.0^{2,6}]dodeca-1(8),2(6),4,9,11-pentaene-4-carboxylic acid], the affinity in assay [2], expressed as Ki, was 0.38 µM.

In assay [1] (pH 7, 22 °C), `O=C(O)COc1c(C(=O)O)sc2cc(-c3ccccc3)ccc12` [3-(carboxymethoxy)-6-phenyl-1-benzothiophene-2-carboxylic acid] had an inhibition constant Ki of 128 µM.

Consider `Cc1cc2sc(C(=O)O)c(OCC(=O)O)c2cn1` [3-(carboxymethoxy)-6-methylthieno[3,2-c]pyridine-2-carboxylic acid], for which, in assay [1] (pH 7, 22 °C), the Ki was > 2500 µM.

Consider `O=C(O)COc1c(C(=O)O)sc2c1sc1ccccc12` [5-(carboxymethoxy)-3,7-dithiatricyclo[6.4.0.0^{2,6}]dodeca-1(8),2(6),4,9,11-pentaene-4-carboxylic acid], for which the values for the Ki in assay [1] (25 °C) and in assay [2] were 9.2 µM and 4.1 µM, respectively.

For the molecule `O=C(O)COc1c(C(=O)O)sc2c(Cl)cccc12` [3-(carboxymethoxy)-7-chloro-1-benzothiophene-2-carboxylic acid], the inhibitory constant (Ki) in assay [1] (25 °C) is 119 µM.

Consider `O=C(O)c1sc2cc(Cl)ccc2c1OC(F)C(=O)O` (centres undefined) [3-[carboxy(fluoro)methoxy]-6-chloro-1-benzothiophene-2-carboxylic acid], for which, in assay [1] (pH 7, 22 °C), the inhibition constant (Ki) amounted to 52 µM.

In the case of `O=C(O)COc1c(C(=O)O)sc2cc(Br)ccc12` [6-bromo-3-(carboxymethoxy)-1-benzothiophene-2-carboxylic acid], in assay [1] (pH 7, 22 °C), the inhibitory constant (Ki) is 42 µM. This Ki and that of the molecule before are within 1.5-fold of each other.

`O=C(O)COc1c(C(=O)O)sc2c1sc1cc(NC3CCOCC3)ccc12` [5-(carboxymethoxy)-10-(oxan-4-ylamino)-3,7-dithiatricyclo[6.4.0.0^{2,6}]dodeca-1(8),2(6),4,9,11-pentaene-4-carboxylic acid]: in assay [1] (25 °C), affinity was put at a Ki of 2.4 µM.

`O=C(O)COc1c(C(=O)O)sc2cc(C(=O)Nc3ccn(-c4ccccc4)n3)ccc12` [3-(carboxymethoxy)-6-[(1-phenyl-1H-pyrazol-3-yl)carbamoyl]-1-benzothiophene-2-carboxylic acid]: the Ki in assay [1] (pH 7, 22 °C) stood at 20 µM.

For the molecule `O=C(O)COc1c(C(=O)O)oc2ncccc12` [3-(carboxymethoxy)furo[2,3-b]pyridine-2-carboxylic acid], the Ki in assay [1] (pH 7, 22 °C) is > 2500 µM.

On to `O=C(O)COc1c(C(=O)O)sc2ccsc12` [3-(carboxymethoxy)thieno[3,2-b]thiophene-2-carboxylic acid], for which the affinity in assay [1] (pH 7, 22 °C) corresponds to a Ki of 280 µM.

In the case of `O=C(O)COc1c(C(=O)O)sc2c1sc1c(Cl)cccc12` [5-(carboxymethoxy)-9-chloro-3,7-dithiatricyclo[6.4.0.0^{2,6}]dodeca-1(8),2(6),4,9,11-pentaene-4-carboxylic acid], the Ki in assay [1] (25 °C) came to 10 µM.
